Test results published in PMC12663734, “Sulfonamine-containing aurone derivatives act as inhibitors of intercellular movement of potato virus Y” (iScience, 2025).
≈ marks a conversion by molar mass, not a printed value.

Key:
[1] = target: T1, PVY CP^P154A (Potato virus Y, UniProt P18247, P2950A); assay: MST binding to mutant PVY CP^P154A
T1 construct: 6xHis tag (within the N-terminal pET-32a(+) fusion leader; the Trx and S-tag parts are inferred from the vector and the ~50 kDa band) (N, cleaved yes); made in house; host or cells: Escherichia coli BL21 (DE3) pLysS
T1 sequence (P18247 2797-3063 P2950A): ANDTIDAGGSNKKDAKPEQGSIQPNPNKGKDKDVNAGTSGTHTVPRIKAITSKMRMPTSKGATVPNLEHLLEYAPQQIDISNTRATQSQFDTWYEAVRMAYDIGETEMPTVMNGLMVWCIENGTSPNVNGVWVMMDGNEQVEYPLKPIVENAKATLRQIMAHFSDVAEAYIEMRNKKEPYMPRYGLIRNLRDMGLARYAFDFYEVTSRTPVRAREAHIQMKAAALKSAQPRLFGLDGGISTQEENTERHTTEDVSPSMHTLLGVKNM

[2] = system: PVY; assay: Anti-PVY protective activity, half-leaf method; details: Potato virus Y, in Chenopodium amaranticolor, 120 h, read-out: Protective effect (%)
Experimental: (§1) Owing to its non-host resistance to PVY, Chenopodium amaranticolor develops a hypersensitive response (HR) within 48–72 hours post-inoculation, producing sharply delimited chlorotic or necrotic local lesions on the inoculated leaves. The number of lesions correlates linearly and positively with virus titre, thereby serving as a quantitative indicator of viral virulence and of the inactivating efficacy of test compounds. The PVY viral extract was rubbed onto the surface of Nicotiana tabacum K326 leaves. After the characteristic symptoms of leaf wrinkling and inward curling appeared, the leaves were harvested and stored at -80°C, then purified according to previously reported methods.[50]^,[51]^,[52] Host leaves were ground to a fine powder in liquid nitrogen, followed by homogenization on ice in 0.5 M phosphate buffer. An equal volume of chloroform:n-butanol (1:1, v/v) corresponding to 10% of the total buffer volume was added, and the mixture was further homogenized on ice. After centrifugation at 10,000g for 20 minutes (4°C), the supernatant was collected as the crude PVY extract. Using 4–5-leaf-stage Chenopodium amaranticolor maintained under optimal growth conditions, a bioassay was conducted with two plants per treatment to systematically evaluate the curative, protective, and inactivating efficacy of the target compound against PVY.[53] […] Each compound was evaluated in three replicates, and the average value was calculated.
In contrast to the antiviral therapeutic activity, the leaves were first treated with the drug solution. A 500 μg/mL drug solution was applied to the right side of the leaves, with the left side serving as a control and treated with a 1% Tween 80 solution. After the leaves had dried under natural conditions, they were placed in a greenhouse for 24 hours before inoculation by rubbing with carborundum, following the same procedures as those for curative activity. After treatment, the plants were maintained in a greenhouse, and the number of local lesions on the inoculated leaves was recorded approximately 5 days.

[3] = target: T2, PVY CP (Potato virus Y, UniProt P18247); assay: biochemical; type: binding
T2 construct: 6xHis tag (within the N-terminal pET-32a(+) fusion leader; the Trx and S-tag parts are inferred from the vector and the ~50 kDa band) (N, cleaved yes); made in house; host or cells: Escherichia coli BL21 (DE3) pLysS
T2 sequence (P18247 2797-3063): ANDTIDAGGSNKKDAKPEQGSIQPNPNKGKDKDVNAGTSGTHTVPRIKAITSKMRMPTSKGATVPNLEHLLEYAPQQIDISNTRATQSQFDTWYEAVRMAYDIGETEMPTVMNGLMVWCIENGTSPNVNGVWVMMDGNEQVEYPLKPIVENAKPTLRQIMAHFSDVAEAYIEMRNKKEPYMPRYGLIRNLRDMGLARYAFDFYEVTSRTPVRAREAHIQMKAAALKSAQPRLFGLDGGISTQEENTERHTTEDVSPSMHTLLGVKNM

[4] = system: PVY; assay: Anti-PVY curative activity, half-leaf method; details: Potato virus Y, in Chenopodium amaranticolor, 120 h, read-out: Curative effect (%)
Experimental: as §1
Chenopodium amaranticolor was selected as the dead spot host. Excess leaves were first trimmed off, and a uniform layer of carborundum was applied to the leaf surface. The leaves were then inoculated by rubbing with a 1200-fold diluted virus solution. After more than an hour, the carborundum on the leaf surface was washed off with running water, and a 500 μg/mL drug solution was prepared. […] The treated plants were cultivated in a greenhouse for observation, and the number of dead spots on the leaves was counted after approximately 5 days.

[5] = system: PVY-GFP; assay: Systemic infection of PVY-GFP in N. benthamiana (GFP fluorescence, RT-qPCR); type: in vivo, potato virus Y; details: 500 μg/mL, seven dpi
Experimental: To investigate the effect of compound D13 on PVY system infection, we inoculated Nicotiana benthamiana (N. benthamiana) leaves with Agrobacterium carrying the wild-type PVY-GFP. After 24 h, the infiltrated leaves were treated with dimethyl sulfoxide (DMSO) as the negative control group and 500 μg/mL D13 as the treatment group. […] To further confirm reproducibility, an additional independent biological replicate (Figure S4) was uploaded, and the observed trend is consistent with the primary dataset.
Wild-type or mutant viral plasmids were introduced into agrobacterium tumefaciens strain GV3101. Bacterial cultures were grown overnight at 28°C with shaking at 220 rpm, harvested by centrifugation at 8 minutes when OD600 reached 0.6–0.8, and the supernatant was discarded. […] At 7 dpi, GFP fluorescence in leaves was visualized and photographed under 365 nm excitation using a LUYOR handheld UV lamp (LUYOR-3415RG, Luyor Instrument, Shanghai, China). […]
The samples of N. benthamiana infected with Agrobacterium were taken out from the -80°C freezer, small steel beads were added, and they were ground into fine powder with liquid nitrogen to ensure that the cells were completely broken and the nucleic acid components in the cells were released. […] The primers used is recorded in Supporting Information.

[6] = system: PVY; assay: Anti-PVY inactivating activity, half-leaf method; details: Potato virus Y, in Chenopodium amaranticolor
Experimental: as §1
Two different dilutions of the virus solution (600-fold and 1200-fold) were prepared, along with a 1000 μg/mL drug solution. The drug solution was mixed with the 600-fold diluted virus solution on ice and incubated for 30 minutes. During the incubation period, the left side of the leaves was treated with a 1200-fold diluted virus solution. After the incubation was completed, the mixed system of drug and virus is inoculated on the right side of the leaf. After waiting for the infection to be completed, the carborundum on the leaf surface was washed off with running water, and the plants were then cultivated in a greenhouse. The number of dead spots on the leaves was counted after approximately 5 days.

COc1ccc(/C=C2\Oc3cc(OCC(=O)NS(=O)(=O)c4ccc(Br)cc4)ccc3C2=O)cc1 [D13, (Z)-N-((4-bromophenyl)sulfonyl)-2-((2-(4-methoxybenzylidene)-3-oxo-2,3-dihydrobenzofuran-6-yl)oxy)acetamide]
Kd [1]: 284 µM | pest or weed control at 500 µg/mL [2]: 47.7 ± 1.4% | Kd [3]: 16 µM | pest or weed control at 500 µg/mL [4]: 53.2 ± 1.6% | accumulation level of PVY RNA in systemic leaves vs DMSO control (100%) ([5]; RT-qPCR): 39.8% | green fluorescence in stems and young top leaves ([5]; UV illumination): almost unobservable | pest or weed control at 500 µg/mL ([6]; 120 h, read-out: Inactivating effect (%), 500 μg/mL, host Chenopodium amaranticolor, average of three replicates): 60 to 80% | EC50 ([6]; read-out: Inactivating effect EC50): 79.5 ± 3.3 µg/mL (≈ 146 µM)
